Measurements taken from patent US12649754B2, “Prodrugs of 2-(3,5-dichloro-1-methyl-indazol-4-yl)-1-[(1S,3R)-3-(hydroxymethyl)-5-(1-hydroxy-1-methyl-ethyl)-1-methyl-3,4-dihydro-1H-isoquinolin-2-yl]ethanone” (UCB Biopharma SRL, priority 2020, dated 2026).
In brackets after ≈: the same amount, converted by molar mass. Like-named read-outs stand apart in the source and are kept apart here.

Tests used:
[1] = In vivo bioavailability of oral suspensions of prodrugs, plasma LC/MS; settings: male Sprague-Dawley rats, single oral dose of suspension corresponding to 3 mg/kg of compound (I), plasma 0.12 h to 8 h
Description: The formulation vehicle used in the following suspension is a mixture of 1% (w/v) methylcellulose (400 cps), 0.1% (weight/volume) TWEEN® 80, 0.1% (w/v) Antifoam 1510 US in 25 mM phosphate buffer pH 3.0 in water. […]
The solution is homogenized by sonication during 1 minute, repeated 3 times.
Three male Sprague-Dawley rats were administered the respective suspensions of (II-A), (II-B) and (II-C), as described in paragraph 7.1 above, at a single oral dose corresponding to 3 mg/kg of compound of formula (I).
Plasma samples were collected 0.12 h, 0.25 h, 0.5 h, 1 h, 2 h, 4 h and 8 h following dosing.
Plasma concentrations of compound (I) and respective compounds (II-A), (II-B) and (II-C) were quantified by LC/MS (liquid chromatography/mass spectrometry).

[2] = Solubility by shake flask method (24 h, HPLC); format: physicochemical; settings: n=3 mean; for solubility at 24 h: thermodynamic from solid, read-out: Solubility Measurements (mean value) (24 h)
Description: The solubility of compounds of formula (Ia) obtained according to Example 2.12. and compounds of formula (II-A), (II-Ax) and (II-B) obtained respectively according to Examples 3.2. and 4.2., was determined in different media while using the shake flask method. An excess of solids, for (II-Ax) and (II-B) equivalent to a concentration of compound of formula (I) of 5 mg/mL, and for (II-A) equivalent to a concentration of compound of formula (I) of 1 mg/mL was suspended in 5 mL of buffer/biorelevant media as specifically described in Table 1 and incubated in a sealed glass vial (10 mL) for 24 h at room temperature or 37° C. (as indicated below) in a climatic chamber equipped with a rotary mixer. The 24 h time point was assumed to have reached solubility, at which time the suspension was filtered through a 0.45-μm ultra free filter (Merck Millipore) and the drug content was determined by HPLC. The solubility of compounds (Ia), (II-A), (II-Ax) and (II-B) was determined in triplicate (n=3) and mean value calculated.
The media tested are respectively water, phosphate buffer, FasSGF, FASSIF-V2 and FeSSIF-V2. FasSG is fasted condition gastric fluid. FasSGF is prepared at pH 1.6 and contains 0.08 mM Taurocholate, 0.02 mM phospholipids, 34 mM sodium and 59 mM chloride. FaSSIF-V2 and FeSSIF-V2 are Fasted and Fed State Biorelevant Media, respectively. FaSSIF-V2 is prepared at pH 6.5 and contains 3 mM Taurocholate, 0.2 mM Phospholipids, 106 mM Sodium, 69 mM Chloride and 19 mM Maleic acid. FeSSIF-V2 is prepared at pH 5.8 and contains 10 mM Taurocholate, 2 mM Phospholipids, 0.8 mM Oleate, 5 mM Glycerol monoleate, 218 mM Sodium, 125 mM Chloride and 55 mM Maleic acid.

[3] = phosphate buffer, pH 4, aqueous buffer, Phosphate buffer (50 mM), pH 4.0, RT
[4] = water, pH 7, water, Water, pH 7.0, RT
[5] = phosphate buffer, pH 6.5, aqueous buffer, Phosphate buffer (50 mM), pH 6.5, RT
[6] = FaSSIF-V2, 37 °C, pH 6.5, fassif, FaSSIF-V2, pH 6.5, 37° C.
[7] = FasSGF, 37 °C, pH 1.6, fassgf or other biorelevant, FasSGF, pH 1.6, 37° C.
[8] = FeSSIF-V2, 37 °C, pH 5.8, fessif, FeSSIF-V2, pH 5.8, 37° C.

cleavage of prodrug into compound of formula (I) in plasma [1] | Solubility Measurements (mean value) (24 h) ([2]; FaSSIF-V2, pH 6.5, 37° C.) [µg/mL] | solubility at 24 h [2, 3] [µg/mL] | solubility at 24 h [2, 4] [µg/mL] | Solubility Measurements (mean value) (24 h) ([2]; FeSSIF-V2, pH 5.8, 37° C.) [µg/mL] | solubility at 24 h [2, 5] [µg/mL] | solubility at 24 h [2, 6] [µg/mL] | solubility at 24 h [2, 7] [µg/mL] | solubility at 24 h [2, 8] [µg/mL] | SMILES
completely cleaved | ~1100 | ~1000 | ~1000 |  |  |  |  |  | C[C@H]1c2cccc(C(C)(C)O)c2C[C@H](COP(=O)(O)O)N1C(=O)Cc1c(Cl)ccc2c1c(Cl)nn2C [(II-A), [(1S,3R)-2-[2-(3,5-dichloro-1-methyl-indazol-4-yl)acetyl]-5-(1-hydroxy-1-methyl-ethyl)-1-methyl-3,4-dihydro-1H-isoquinolin-3-yl]methyl dihydrogen phosphate]
 | >5000 |  |  | >5000 | > 5000 |  |  |  | C[C@H]1c2cccc(C(C)(C)O)c2C[C@H](COP(=O)(O)O)N1C(=O)Cc1c(Cl)ccc2c1c(Cl)nn2C [(II-Ax), [(1S,3R)-2-[2-(3,5-dichloro-1-methyl-indazol-4-yl)acetyl]-5-(1-hydroxy-1-methyl-ethyl)-1-methyl-3,4-dihydro-1H-isoquinolin-3-yl]methyl dihydrogen phosphate]
partially cleaved |  | ~850 (≈ 1480 µM) | ~40 (≈ 69.5 µM) |  | ~70 (≈ 122 µM) | ~30 (≈ 52.1 µM) | ~4800 (≈ 8340 µM) | ~900 (≈ 1560 µM) | CC(C)[C@H](N)C(=O)OC[C@H]1Cc2c(cccc2C(C)(C)O)[C@H](C)N1C(=O)Cc1c(Cl)ccc2c1c(Cl)nn2C [(II-B), [(1S,3R)-2-[2-(3,5-dichloro-1-methyl-indazol-4-yl)acetyl]-5-(1-hydroxy-1-methyl-ethyl)-1-methyl-3,4-dihydro-1H-isoquinolin-3-yl]methyl (2S)-2-amino-3-methyl-butanoate]
completely cleaved |  |  |  |  |  |  |  |  | CC(C)C[C@H](N)C(=O)OC[C@H]1Cc2c(cccc2C(C)(C)O)[C@H](C)N1C(=O)Cc1c(Cl)ccc2c1c(Cl)nn2C [(II-C), [(1S,3R)-2-[2-(3,5-dichloro-1-methyl-indazol-4-yl)acetyl]-5-(1-hydroxy-1-methyl-ethyl)-1-methyl-3,4-dihydro-1H-isoquinolin-3-yl]methyl (2S)-2-amino-4-methyl-pentanoate]
 |  | < 1 | < 1 |  | < 1 | ~1.5 (≈ 3.15 µM) | < 1 | ~4 (≈ 8.4 µM) | C[C@H]1c2cccc(C(C)(C)O)c2C[C@H](CO)N1C(=O)Cc1c(Cl)ccc2c1c(Cl)nn2C [(Ia), 2-(3,5-dichloro-1-methyl-indazol-4-yl)-1-[(1S,3R)-3-(hydroxymethyl)-5-(1-hydroxy-1-methyl-ethyl)-1-methyl-3,4-dihydro-1H-isoquinolin-2-yl]ethanone]
